Measurements as given in PubChem BioAssay (NCI).
Several values for one entry are separate records, joined by “and”; a condition that tells them apart may be missing. Equal entries are not always repeated.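 In this assay, cells in 96-well plates receive the compound at five concentrations for 48 hours. Endpoints are linearly interpolated between the surrounding concentrations. The concentration for 50% growth inhibition is given as GI50. TGI: total growth inhibition.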

Columns and labels:
Experiment in all cases: NCI anticancer screen, dose series, 48 h
SNB-19 CNS = tested on: SNB-19 CNS
A498 renal = tested on: A498 renal
OVCAR-4 ovarian = tested on: OVCAR-4 ovarian
SK-OV-3 ovarian = tested on: SK-OV-3 ovarian
SW-620 colon = tested on: SW-620 colon
MOLT-4 leukemia = tested on: MOLT-4 leukemia
HT29 colon = tested on: HT29 colon
TK-10 renal = tested on: TK-10 renal
PC-3 prostate = tested on: PC-3 prostate
UO-31 renal = tested on: UO-31 renal

SMILES	GI50 (SNB-19 CNS) [µM]	TGI (SNB-19 CNS)	GI50 (A498 renal) [µM]	TGI (A498 renal) [µM]	GI50 (OVCAR-4 ovarian) [µM]	TGI (OVCAR-4 ovarian)	GI50 (SK-OV-3 ovarian) [µM]	TGI (SK-OV-3 ovarian)	GI50 (SW-620 colon)	TGI (SW-620 colon)	GI50 (MOLT-4 leukemia)	TGI (MOLT-4 leukemia)	GI50 (HT29 colon)	TGI (HT29 colon)	GI50 (TK-10 renal) [µM]	TGI (TK-10 renal)	GI50 (PC-3 prostate) [µM]	TGI (PC-3 prostate) [µM]	GI50 (UO-31 renal) [µM]	TGI (UO-31 renal) [µM]
Cc1cn2c(/C=C3/C(=O)Nc4ccc(C(=O)O)cc43)c(C)nc2s1	> 100	> 100 µM	> 100	> 100	> 100	> 100 µM	> 100	> 100 µM	> 100 µM	> 100 µM	> 100 µM	> 100 µM	> 100 µM	> 100 µM	> 100	> 100 µM	> 100	> 100	> 100	> 100
CCc1ccc(C2=NN(c3ccc(S(C)(=O)=O)cc3)C(=O)CC2)cc1	8.82	> 100 µM	0.322	4.46	7.14	> 91.5 µM	2.34	12.4 µM	0.56 µM	> 100 µM	1.53 µM	17.5 µM	0.411 µM	13.4 µM	8.31	> 100 µM	2.31	> 100	4.89	> 100
Cc1ccc(O)cc1Nc1ccnc2cc(-c3ccccn3)ccc12	4.54	18.3 µM	1.83	5.04	1.82	11.7 µM	1.98	6.3 µM	4.02 µM	7.65 µM	4.18 µM	10.7 µM	3.9 µM	7.81 µM	1.36	4.23 µM	3.08	10.4	0.246	3.77
CN(c1ccc(NC(=O)NCCN2CCOCC2)cc1)c1ccnc(Nc2ccc(CS(C)(=O)=O)cc2)n1	> 25	> 25 µM	> 25	> 25	19.8	> 25 µM	> 25	> 25 µM	> 25 µM	> 25 µM	> 25 µM	> 25 µM	> 25 µM	> 25 µM	> 25	> 25 µM	> 25	> 25	> 25	> 25
N#Cc1cccc(C2C3=C(COC3=O)N(CCO)c3cc4c(cc32)CCC4)c1 (configuration not stated)	0.18	> 50 µM	0.0411	0.303	0.374	> 50 µM	0.215	> 30.5 µM	0.153 µM	> 50 µM	0.203 µM	> 50 µM	0.16 µM	> 18.8 µM	0.436	> 50 µM	0.15	> 50	0.165	> 31.7
Cc1ccc(NC2=CC(=O)C(=O)c3ccccc32)c(C)c1	3.88	15 µM	4.69	17.8	2.53	12.2 µM	13.8	27.9 µM	3.26 µM	12.8 µM	2.88 µM	16.6 µM	2.51 µM	7.08 µM	0.596	12.2 µM	3.37	17.1	2.19	14.5
CN(C)c1ccc2c(c1)OC(N)=C(C#N)C2c1ccc2c(c1)CCCN2C (configuration not stated)	4.26	> 100 µM	0.228	4.07	5.01	> 100 µM	2.52	25.8 µM	0.938 µM	> 100 µM	3.38 µM	24.5 µM	2.62 µM	8.23 µM	10.2	91.7 µM	2.64	> 100	5.15	78.5
CCN(CC)Cc1cc(Nc2cc(C(F)(F)F)c(C#N)c3nc4ccccc4n23)ccc1O	4.39	36.2 µM	1.44	5.85	1	2.59 µM	1.98	8.59 µM	2.61 µM	10.2 µM	2.46 µM	75 µM	2.5 µM	12.2 µM	1.47	9.43 µM	2.32	7.87	1.12	3.1
C=CC(C)(O)CCC1C(=C)C(O)CC2C(C)(C)CCCC12C (configuration not stated)		35.6 µM		33.3		47.5 µM		> 100 µM		43.5 µM		31.2 µM		33 µM		47.5 µM		32.2		28.5
CC1=NN(c2nc(N)nc(/C=C\c3ccccc3)n2)C(C)(C)C1	20.3	42.9 µM	5.58	20.7	4.16	16.6 µM	6.66	36.1 µM	4.48 µM	44.2 µM	13 µM	40.7 µM	2.47 µM	14 µM	7.76	22.2 µM	4.41	19.7	13.5	28.5
O=C(/C=C/c1cccc(Oc2ccc(Cl)cc2)c1)c1ccccc1	35.3	111 µM	163	312	75	234 µM	195	381 µM	22.6 µM	49.4 µM	30.8 µM		26.2 µM	61.6 µM	192	342 µM	19.7	37.8	17.3	34.1
CCc1c(C#N)c(SC(C(N)=O)c2ccccc2)nc(N2CCC(N)CC2)c1C#N (configuration not stated)	14.9	28.5 µM	15.4	30.4	15.5	34.3 µM	15.7	29.8 µM	15.5 µM	29.6 µM	11.5 µM	31.2 µM	14.3 µM	30.7 µM	15.3	29.9 µM	12.9	26.5	> 100	> 100
O=C(Nc1cccc(-n2cc(-c3ccncc3)c(-c3ccc(O)c(Cl)c3)n2)c1)Nc1ccc(Cl)c(Cl)c1	3.06	> 100 µM	1.95	7.01	2.4	9.5 µM	3.43	> 100 µM	2.63 µM	7.32 µM	1.43 µM	4.52 µM	3.42 µM	39 µM	2.83	7.56 µM	2.07	7.45	2.67	8.34
N=C(N)c1ccc(OCCCCCOc2ccc(C(=N)N)cc2)cc1	2.79	24.5 µM and 54.6 µM and 32.3 µM	7.24	> 50	3.6	18.7 µM and 35.4 µM and 53.5 µM		> 50 µM and 29.8 µM and 22.3 µM	5.17 µM and 8.95 µM and 18.1 µM	> 50 µM and 57.7 µM and 86.9 µM	23.3 µM and 12 µM and 28.3 µM	> 50 µM and 51.8 µM and > 100 µM	5.05 µM and 15.8 µM and 35.5 µM	> 50 µM and 60.4 µM and > 100 µM	8.49	18.9 µM and 27.6 µM and 48.3 µM	6.92	> 100		> 100
